Measured values taken from patent publication US9034886B2, “4-aminoquinazoline derivatives and uses thereof” (Shanghai Institute of Pharmaceutical Industry, priority 2011, dated 2015).

Tests used:
[1] = tested on: HDACs; experiment: In vitro inhibition of HDACs (HDAC Inhibitor Drug Screening Kit, Biovision K340-100); format: biochemical
Experimental: The in vitro inhibitory activities of the compounds towards HDACs were tested according to the instructions in the HDAC Inhibitor Drug Screening Kit (Biovision/Catalog #K340-100).
(1) The compounds to be tested were each individually prepared as 2 mM, 200 μM and 40 μM solutions and their inhibitory activities at these concentrations were tested.

[2] = target: HDAC1 (Homo sapiens (Human), UniProt Q13547); experiment: In vitro inhibition of subtype HDAC1 (HDAC1 Inhibitor Drug Screening Kit, Biovision); format: biochemical; conditions: for inhibition at 1 µM / inhibition at 10 µM: read-out: % Inhibition towards HDAC1; for inhibitory activity against HDAC1 compared with MS-275: both concentrations 10 μM and 1 μM
Experimental: The in vitro inhibitory activities of the compounds towards the subtype HDAC1 were tested according to the instructions in the HDAC1 Inhibitor Drug Screening Kit (Biovision).
(1) The compounds to be tested were each individually prepared as 10 μM and 1 μM solutions and their inhibitory activities at these concentrations were tested.
Each dilution sample was placed in two wells and the enzyme inhibition IC50 of the compound was tested.

[3] = tested on: Hut78 T lymphocytic leukemia cells; experiment: In vitro anti-proliferative effect, CCK-8 method, Hut78; format: cell-based; conditions: Homo sapiens, HuT78, read-out: Hut-78 (inhibition %)
Experimental: (§1) The inhibitory activities of the compounds towards Hut78 T lymphocytic leukemia cells, Jurkat E6-1 human T-cell lymphoma, PANC-1 human pancreatic cancer cells, A549 human lung cancer cells, K562 human chronic myelogenous leukemia cells, Hep3B2.1-7 human liver cancer cells, MDA-MB-435s human breast cancer cells. Colo320 human colorectal cancer cell lines, and PC-3 human prostate cancer at two concentrations of 100 μM and 10 μM were determined. The inhibition percentages were obtained through CCK-8 method.

[4] = tested on: PANC-1 human pancreatic cancer cells; experiment: In vitro anti-proliferative effect, CCK-8 method, PANC-1; format: cell-based; conditions: Homo sapiens, PANC-1
Experimental: as §1

[5] = tested on: Jurkat E6-1 human T-cell lymphoma; experiment: In vitro anti-proliferative effect, CCK-8 method, Jurkat E6-1; format: cell-based; conditions: Homo sapiens, Jurkat E6.1
Experimental: as §1

[6] = tested on: K562 human chronic myelogenous leukemia cells; experiment: In vitro anti-proliferative effect, CCK-8 method, K562; format: cell-based; conditions: Homo sapiens, K562
Experimental: as §1

[7] = tested on: A549 human lung cancer cells; experiment: In vitro anti-proliferative effect, CCK-8 method, A549; format: cell-based; conditions: Homo sapiens, A549
Experimental: as §1

[8] = tested on: MDA-MB-435s human breast cancer cells; experiment: In vitro anti-proliferative effect, CCK-8 method, MDA-MB-435s; format: cell-based; conditions: Homo sapiens, MDA-MB-435S
Experimental: as §1

[9] = tested on: Hep3B2.1-7 human liver cancer cells; experiment: In vitro anti-proliferative effect, CCK-8 method, Hep3B; format: cell-based; conditions: Homo sapiens, Hep3B cell strain, CCK-8 method; for inhibition at 10 µM: compound at 10 μM; for inhibition at 100 µM: compound at 100 μM
Experimental: as §1

[10] = tested on: PC-3 human prostate cancer; experiment: In vitro anti-proliferative effect, CCK-8 method, PC-3; format: cell-based; conditions: Homo sapiens, PC-3 cell strain, CCK-8 method; for inhibition at 10 µM: compound at 10 μM; for inhibition at 100 µM: compound at 100 μM
Experimental: as §1

[11] = tested on: Colo320 human colorectal cancer cell lines; experiment: In vitro anti-proliferative effect, CCK-8 method, Colo320; format: cell-based; conditions: Homo sapiens, COLO 320, Colo320 cell strain, CCK-8 method; for inhibition at 10 µM: compound at 10 μM; for inhibition at 100 µM: compound at 100 μM
Experimental: as §1

HDAC1, sequence (Q13547 whole entry): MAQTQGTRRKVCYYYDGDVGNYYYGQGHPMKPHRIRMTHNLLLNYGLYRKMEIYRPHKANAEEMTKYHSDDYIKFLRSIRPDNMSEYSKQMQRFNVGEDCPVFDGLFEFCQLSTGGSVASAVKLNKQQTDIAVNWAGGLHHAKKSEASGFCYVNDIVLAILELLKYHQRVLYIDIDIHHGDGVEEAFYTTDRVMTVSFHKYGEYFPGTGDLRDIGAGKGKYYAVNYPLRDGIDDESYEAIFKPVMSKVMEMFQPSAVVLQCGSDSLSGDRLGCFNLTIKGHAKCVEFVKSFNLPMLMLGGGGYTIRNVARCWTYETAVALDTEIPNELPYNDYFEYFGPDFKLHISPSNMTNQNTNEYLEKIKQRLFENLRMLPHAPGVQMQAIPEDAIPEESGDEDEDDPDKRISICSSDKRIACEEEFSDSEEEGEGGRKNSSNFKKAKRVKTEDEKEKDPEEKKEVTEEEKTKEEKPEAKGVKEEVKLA

| Compound | inhibition at 1 µM [2] [%] | inhibition at 10 µM [2] [%] | Inhibition percentage (%) towards HDACs ([1]; 40 μM) [%] | Inhibition percentage (%) towards HDACs ([1]; 200 μM) [%] | Inhibition percentage (%) towards HDACs ([1]; 2 mM) [%] | inhibition at 10 µM [3] [%] | inhibition at 100 µM [3] [%] | inhibition at 10 µM [4] [%] | inhibition at 100 µM [4] [%] | inhibition at 10 µM [5] [%] | inhibition at 100 µM [5] [%] | inhibition at 10 µM [6] [%] | inhibition at 100 µM [6] [%] | inhibition at 10 µM [7] [%] | inhibition at 100 µM [7] [%] | inhibition at 10 µM [8] [%] | inhibition at 100 µM [8] [%] | inhibition at 10 µM [9] [%] | inhibition at 100 µM [9] [%] | inhibition at 10 µM [10] [%] | further results |
| --- | --- | --- | --- | --- | --- | --- | --- | --- | --- | --- | --- | --- | --- | --- | --- | --- | --- | --- | --- | --- | --- |
| COCCOc1cc2ncnc(Nc3ccc(C(=O)Nc4ccccc4N)cc3)c2cc1OCCOC [Compound V-15, N-(2-aminophenyl)-4-(6,7-dimethoxyethoxyquinazoline-4-amino)benzamide] | 67.1 | 78.8 | 13.7 | 51.5 | 61.4 | 70.7 | 80.4 | 7.2 | 0.5 | 33.7 | 13.9 | 27.2 | 11.9 | 4.7 | 3.5 | 21.6 | 21 | 16.3 | 11.2 | 10.9 | IC50 [1]: 9400 nM; inhibitory activity against HDAC1 compared with MS-275 [2]: superior to that of MS-275; inhibition at 100 µM [10]: 8.6%; inhibition at 10 µM [11]: 15.3%; inhibition at 100 µM [11]: 3.9% |
| COCCOc1cc2ncnc(Nc3ccc(C(=O)Nc4ccncc4N)cc3)c2cc1OCCOC [Compound V-16] | 59.1 | 87.4 | 24.8 | 56.8 | 58.6 | 26.2 | 20.7 | 8 | 7.8 | 37.2 | 22.1 | 42.8 | 29.7 | 48.7 | 65.7 | 49.8 | 50.4 | 24.8 | 13.5 | 5.1 | IC50 [1]: 6890 nM; inhibitory activity against HDAC1 compared with MS-275 [2]: superior to that of MS-275; inhibition at 100 µM [10]: 3.4%; inhibition at 10 µM [11]: -2.3%; inhibition at 100 µM [11]: -17.1% |
| CS(=O)(=O)CCNCc1ccc(-c2ccc3ncnc(Nc4ccc(C(=O)Nc5ccccc5N)cc4)c3c2)o1 [Compound V-19, N-(2-aminophenyl)-4-[6-(5-((2-(methylsulfonyl)ethylamino)methyl)furyl)quinazoline-4-amino]benzamide] | 47.6 | 80.2 | 22.7 | 57.8 | 72.3 | 43 | 77 | 20.2 | 26.2 | 58.3 | 80.9 | 54.3 | 85.8 | 6.3 | 37.3 | 33 | 77 | 25.4 | 49.9 | 50.2 | IC50 [1]: 1370 nM; inhibitory activity against HDAC1 compared with MS-275 [2]: superior to that of MS-275; inhibition at 100 µM [10]: 61%; inhibition at 10 µM [11]: 12.9%; inhibition at 100 µM [11]: 40.1% |
| COc1cc2ncnc(Nc3ccc(C(=O)Nc4cc(-c5cccs5)ccc4N)cc3)c2cc1OC [Compound V-23, N-[2-amino-5-(2-thienyl)phenyl]-4-(6,7-dimethoxyquinazoline-4-amino)benzamide] | 19.2 | 55.8 | 17.5 | 37.3 | 40.7 | 59.9 | 93.1 | 9.2 | 4 | 4.7 | 52.7 | 12.8 | 61.2 | -7.4 | 6.2 | 21.5 | 42.9 | 1 | 28.1 | 7 | IC50 [2]: 178 nM; inhibition at 100 µM [10]: 40.2%; inhibition at 10 µM [11]: 7.3%; inhibition at 100 µM [11]: 5.9% |

More lines, main results first:

| inhibition at 1 µM [2] [%] | inhibition at 10 µM [2] [%] | Compound | Inhibition percentage (%) towards HDACs ([1]; 40 μM) [%] | Inhibition percentage (%) towards HDACs ([1]; 200 μM) [%] | Inhibition percentage (%) towards HDACs ([1]; 2 mM) [%] | inhibition at 10 µM [3] [%] | inhibition at 100 µM [3] [%] | inhibition at 10 µM [4] [%] | inhibition at 100 µM [4] [%] | inhibition at 10 µM [5] [%] | inhibition at 100 µM [5] [%] | inhibition at 10 µM [6] [%] | inhibition at 100 µM [6] [%] | inhibition at 10 µM [7] [%] | inhibition at 100 µM [7] [%] | inhibition at 10 µM [8] [%] | inhibition at 100 µM [8] [%] | inhibition at 10 µM [9] [%] | inhibition at 100 µM [9] [%] | inhibition at 10 µM [10] [%] | further results |
| --- | --- | --- | --- | --- | --- | --- | --- | --- | --- | --- | --- | --- | --- | --- | --- | --- | --- | --- | --- | --- | --- |
| 45.2 | 62.6 | COc1cccc2c(Nc3ccc(C(=O)Nc4cc(F)ccc4N)cc3)ncnc12 [Compound V-10, N-(2-amino-5-fluorophenyl)-4-(8-methoxy-quinazoline-4-amino)benzamide] | 12.0 | 32.9 | 77.2 | 8.1 | 47.5 | 13 | 19 | 25.3 | 72.8 | 45 | 62.1 | -4.4 | 40.1 | 9.4 | 82.9 | 3.7 | 31.3 | 13.7 | IC50 [1]: 1040 nM; inhibitory activity according to in vitro IC50 value against HDACs compared with MS-275 [1]: better inhibitory activities than MS-275; inhibition at 100 µM [10]: 57.4%; inhibition at 10 µM [11]: 6.4%; inhibition at 100 µM [11]: 23.3% |
| 15 | 49.1 | Nc1ccccc1NC(=O)c1ccc(Nc2ncnc3ccc(F)cc23)cc1 [Compound V-12, N-(2-aminophenyl)-4-(6-fluoroquinazoline-4-amino)benzamide] | 16.8 | 43.0 | 85.2 | 62.5 | 62.5 | 15.8 | 21.9 | 25 | 87.4 | 49.3 | 69.8 | -9 | 55.1 | 5.7 | 77.2 | 4.7 | 67.1 | 25.5 | IC50 [1]: 920 nM; inhibition at 100 µM [10]: 61.3%; inhibition at 10 µM [11]: 2.4%; inhibition at 100 µM [11]: 46.1% |
| 55 | 86.9 | CC(=O)Nc1ccc2ncnc(Nc3ccc(C(=O)Nc4ccccc4N)cc3)c2c1 [Compound V-21, N-(2-aminophenyl)-4-(6-acetamidoquinazoline-4-amino)benzamide] | 10.1 | 39.1 | 79.2 | 65.2 | 75.6 | 12.5 | 33.3 | 49.3 | 89.7 | 52.2 | 85.2 | 17.1 | 96.4 | 25.2 | 88.8 | 11 | 68.1 | 40.1 | inhibitory activity against HDAC1 compared with MS-275 [2]: superior to that of MS-275; inhibition at 100 µM [10]: 64.2%; inhibition at 10 µM [11]: 9.5%; inhibition at 100 µM [11]: 45.9% |
